# Calls of active or inactive are those of the source. The calls are words filed in the database; no cut-off is given here.
# Legend:
# [1] = target: T1, Fatty-acid amide hydrolase 1 (Homo sapiens, UniProt O00519); experiment: Binding assay; design: compound concentration 10 uM
# [2] = target: 5-hydroxytryptamine receptor 2A (Homo sapiens, UniProt P28223); experiment: GPCRScan assay: inhibition of 5-HT2A; design: radioligand conc. used [nm] 1.2 – 2.4, parental cells HEKT
# [3] = target: 5-hydroxytryptamine receptor 2C (Homo sapiens, UniProt P28335); experiment: GPCRScan assay: inhibition of 5-HT2C; design: radioligand conc. used [nm] 1.0 – 2.5, parental cells HEK T
# Sequence of 5-hydroxytryptamine receptor 2C (P28335 whole entry): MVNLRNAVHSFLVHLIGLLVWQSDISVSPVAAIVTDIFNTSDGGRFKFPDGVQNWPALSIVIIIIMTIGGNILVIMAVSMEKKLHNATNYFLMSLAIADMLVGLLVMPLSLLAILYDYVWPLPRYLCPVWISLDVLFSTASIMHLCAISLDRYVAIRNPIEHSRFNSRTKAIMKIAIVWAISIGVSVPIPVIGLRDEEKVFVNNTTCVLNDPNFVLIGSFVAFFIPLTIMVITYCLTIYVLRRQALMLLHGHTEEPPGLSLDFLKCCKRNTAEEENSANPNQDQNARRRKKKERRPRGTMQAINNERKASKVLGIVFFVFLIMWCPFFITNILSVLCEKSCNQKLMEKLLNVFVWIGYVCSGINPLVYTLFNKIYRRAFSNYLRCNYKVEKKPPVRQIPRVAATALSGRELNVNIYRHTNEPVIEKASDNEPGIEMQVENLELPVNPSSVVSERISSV
# [4] = target: Alpha-2C adrenergic receptor (Homo sapiens, UniProt P18825); experiment: GPCRScan assay: inhibition of Alpha2C; design: radioligand conc. used [nm] 0.5 – 1.0, parental cells stable MDCK
# Sequence of Alpha-2C adrenergic receptor (P18825 whole entry): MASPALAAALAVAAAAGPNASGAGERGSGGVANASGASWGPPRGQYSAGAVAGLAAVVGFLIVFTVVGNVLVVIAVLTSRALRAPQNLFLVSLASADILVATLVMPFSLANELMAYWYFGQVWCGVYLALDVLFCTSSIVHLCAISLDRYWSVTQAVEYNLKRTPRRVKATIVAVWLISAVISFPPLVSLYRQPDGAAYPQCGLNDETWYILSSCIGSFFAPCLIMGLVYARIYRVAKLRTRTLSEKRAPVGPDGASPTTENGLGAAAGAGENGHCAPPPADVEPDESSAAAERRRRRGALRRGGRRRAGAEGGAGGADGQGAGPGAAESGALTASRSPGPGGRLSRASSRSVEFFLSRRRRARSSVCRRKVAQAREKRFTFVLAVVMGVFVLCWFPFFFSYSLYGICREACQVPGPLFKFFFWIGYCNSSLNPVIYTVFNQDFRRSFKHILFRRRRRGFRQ
# [5] = target: Sigma non-opioid intracellular receptor 1 (Homo sapiens, UniProt Q99720); experiment: GPCRScan assay: inhibition of Sigma 1; design: radioligand conc. used [nm] 4.0 – 5.0, parental cells HEKT
# Sequence of Sigma non-opioid intracellular receptor 1 (Q99720 whole entry): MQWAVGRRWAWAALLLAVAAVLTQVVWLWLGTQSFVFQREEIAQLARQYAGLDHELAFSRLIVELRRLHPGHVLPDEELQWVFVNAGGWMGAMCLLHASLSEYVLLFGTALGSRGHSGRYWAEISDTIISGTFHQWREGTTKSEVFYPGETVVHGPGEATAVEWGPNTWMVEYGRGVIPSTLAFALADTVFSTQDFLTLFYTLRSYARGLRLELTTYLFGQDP
# [6] = target: T1, Fatty-acid amide hydrolase 1; experiment: Glutamate dehydrogenase-coupled FAAH assay (preincubation time 60 min)
# [7] = target: Adrenergic receptor alpha-1 (Homo sapiens) (UniProt P35348+P25100+P35368); experiment: alpha1 (non-selective) CEREP ligand profiling; assay type: protein assay; conditions: Compound concentration 10.0 uM
# [8] = target: Alpha-2B adrenergic receptor (Homo sapiens) (UniProt P18089); experiment: alpha2B (h) CEREP ligand profiling; conditions: Compound concentration 10.0 uM
# [9] = target: Type-1 angiotensin II receptor (Homo sapiens) (UniProt P30556); experiment: AT1 (h) CEREP ligand profiling; conditions: Compound concentration 10.0 uM
# [10] = target: Cholecystokinin receptor type A (Homo sapiens) (UniProt P32238); experiment: CCKA (h) (CCK1) CEREP ligand profiling; conditions: Compound concentration 10.0 uM
# [11] = target: D(3) dopamine receptor (Homo sapiens) (UniProt P35462); experiment: D3 (h) CEREP ligand profiling; conditions: Compound concentration 10.0 uM
# [12] = target: Glutamate receptor ionotropic, AMPA (Rattus norvegicus) (UniProt P19491+P19492+P19493+P19490); experiment: AMPA CEREP ligand profiling; assay type: protein-complex assay; conditions: Compound concentration 10.0 uM
# [13] = target: Glutamate receptor ionotropic, kainate 2 (Homo sapiens) (UniProt Q13002); experiment: Kainate CEREP ligand profiling; conditions: Compound concentration 10.0 uM
# Sequence of Glutamate receptor ionotropic, kainate 2 (Homo sapiens) (Q13002 whole entry): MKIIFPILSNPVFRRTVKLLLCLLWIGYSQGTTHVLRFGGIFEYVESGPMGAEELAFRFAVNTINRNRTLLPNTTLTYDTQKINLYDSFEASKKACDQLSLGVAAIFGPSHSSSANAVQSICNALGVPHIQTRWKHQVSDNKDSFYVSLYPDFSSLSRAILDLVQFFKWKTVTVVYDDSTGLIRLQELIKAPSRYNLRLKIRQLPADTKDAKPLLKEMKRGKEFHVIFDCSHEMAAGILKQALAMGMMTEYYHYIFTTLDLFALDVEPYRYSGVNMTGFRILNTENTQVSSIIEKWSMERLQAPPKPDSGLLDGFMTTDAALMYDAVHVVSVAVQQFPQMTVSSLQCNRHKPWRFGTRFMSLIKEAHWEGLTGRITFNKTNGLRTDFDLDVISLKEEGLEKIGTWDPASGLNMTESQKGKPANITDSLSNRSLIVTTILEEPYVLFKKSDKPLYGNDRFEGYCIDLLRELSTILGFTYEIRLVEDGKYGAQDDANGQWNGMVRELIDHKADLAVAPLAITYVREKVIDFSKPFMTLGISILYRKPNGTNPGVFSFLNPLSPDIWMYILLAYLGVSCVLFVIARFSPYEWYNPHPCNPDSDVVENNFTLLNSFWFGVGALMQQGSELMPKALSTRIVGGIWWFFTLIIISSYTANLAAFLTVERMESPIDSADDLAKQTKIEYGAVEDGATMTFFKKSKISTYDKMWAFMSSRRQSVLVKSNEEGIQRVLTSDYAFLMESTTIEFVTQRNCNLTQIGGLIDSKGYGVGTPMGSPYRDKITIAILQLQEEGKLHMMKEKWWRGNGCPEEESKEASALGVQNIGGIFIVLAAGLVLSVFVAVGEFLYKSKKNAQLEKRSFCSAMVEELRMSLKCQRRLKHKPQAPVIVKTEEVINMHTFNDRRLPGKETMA
# [14] = target: Glutamate [NMDA] receptor (Homo sapiens) (UniProt Q05586+Q12879+Q13224+O15399+O60391+Q14957+Q8TCU5); experiment: NMDA CEREP ligand profiling; assay type: protein-complex assay; conditions: Compound concentration 10.0 uM
# [15] = target: Histamine H2 receptor (Homo sapiens) (UniProt P25021); experiment: H2 (h) CEREP ligand profiling; conditions: Compound concentration 10.0 uM
# Sequence of Histamine H2 receptor (Homo sapiens) (P25021 whole entry): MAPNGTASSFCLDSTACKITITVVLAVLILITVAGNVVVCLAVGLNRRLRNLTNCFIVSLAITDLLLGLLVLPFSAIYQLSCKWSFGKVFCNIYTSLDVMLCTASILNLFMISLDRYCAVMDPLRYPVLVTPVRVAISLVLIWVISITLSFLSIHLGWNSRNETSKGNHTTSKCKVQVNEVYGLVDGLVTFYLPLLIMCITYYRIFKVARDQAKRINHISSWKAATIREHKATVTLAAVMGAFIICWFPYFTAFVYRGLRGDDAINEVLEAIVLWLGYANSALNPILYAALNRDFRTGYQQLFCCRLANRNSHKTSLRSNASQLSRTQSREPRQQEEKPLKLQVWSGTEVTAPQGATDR
# [16] = target: T2, Muscarinic acetylcholine receptor M1 (Homo sapiens) (UniProt P11229); experiment: M1 (h) CEREP ligand profiling; conditions: Compound concentration 10.0 uM
# T2 sequence (whole entry): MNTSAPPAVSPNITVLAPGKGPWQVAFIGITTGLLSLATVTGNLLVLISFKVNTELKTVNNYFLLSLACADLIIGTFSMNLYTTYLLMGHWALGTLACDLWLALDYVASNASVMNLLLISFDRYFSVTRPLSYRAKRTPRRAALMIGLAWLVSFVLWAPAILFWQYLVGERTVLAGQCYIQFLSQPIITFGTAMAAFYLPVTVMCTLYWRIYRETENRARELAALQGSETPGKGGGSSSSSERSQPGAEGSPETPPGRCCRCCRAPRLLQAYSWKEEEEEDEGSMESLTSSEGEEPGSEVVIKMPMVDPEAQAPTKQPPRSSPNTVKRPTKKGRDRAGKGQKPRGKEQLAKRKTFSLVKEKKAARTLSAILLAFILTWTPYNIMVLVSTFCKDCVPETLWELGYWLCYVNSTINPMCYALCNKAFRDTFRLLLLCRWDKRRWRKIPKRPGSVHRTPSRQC
# [17] = target: Kappa-type opioid receptor (Homo sapiens) (UniProt P41145); experiment: kappa (KOP) CEREP ligand profiling; conditions: Compound concentration 10.0 uM
# Sequence of Kappa-type opioid receptor (Homo sapiens) (P41145 whole entry): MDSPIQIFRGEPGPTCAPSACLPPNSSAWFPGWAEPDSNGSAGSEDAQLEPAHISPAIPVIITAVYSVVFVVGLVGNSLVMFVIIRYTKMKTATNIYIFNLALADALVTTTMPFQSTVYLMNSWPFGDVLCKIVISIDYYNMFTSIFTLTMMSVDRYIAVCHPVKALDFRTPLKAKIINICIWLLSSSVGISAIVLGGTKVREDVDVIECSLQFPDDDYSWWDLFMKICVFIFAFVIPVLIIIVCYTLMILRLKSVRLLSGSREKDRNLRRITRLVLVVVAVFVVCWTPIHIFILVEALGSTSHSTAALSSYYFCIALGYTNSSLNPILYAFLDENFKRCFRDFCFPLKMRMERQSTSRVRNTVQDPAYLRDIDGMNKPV
# [18] = target: 5-hydroxytryptamine receptor 1A (Homo sapiens) (UniProt P08908); experiment: 5-HT1A (h) CEREP ligand profiling; conditions: Compound concentration 10.0 uM
# Sequence of 5-hydroxytryptamine receptor 1A (Homo sapiens) (P08908 whole entry): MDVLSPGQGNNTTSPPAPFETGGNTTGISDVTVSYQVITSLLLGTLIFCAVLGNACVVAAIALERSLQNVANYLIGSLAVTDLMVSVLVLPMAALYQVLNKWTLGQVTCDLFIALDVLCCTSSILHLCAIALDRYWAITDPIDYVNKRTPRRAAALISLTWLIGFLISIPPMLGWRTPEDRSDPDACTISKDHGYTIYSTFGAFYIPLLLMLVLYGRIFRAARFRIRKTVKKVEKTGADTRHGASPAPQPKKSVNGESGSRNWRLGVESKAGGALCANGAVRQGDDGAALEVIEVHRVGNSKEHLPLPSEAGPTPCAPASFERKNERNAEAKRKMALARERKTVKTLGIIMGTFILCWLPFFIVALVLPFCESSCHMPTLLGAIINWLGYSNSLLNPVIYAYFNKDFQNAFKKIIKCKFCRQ
# [19] = target: 5-hydroxytryptamine receptor 7 (Homo sapiens) (UniProt P34969); experiment: 5-HT7 (h) CEREP ligand profiling; conditions: Compound concentration 10.0 uM
# [20] = target: Vasopressin V1a receptor (Homo sapiens) (UniProt P37288); experiment: V1a (h) CEREP ligand profiling; conditions: Compound concentration 10.0 uM
# Sequence of Vasopressin V1a receptor (Homo sapiens) (P37288 whole entry, looked up): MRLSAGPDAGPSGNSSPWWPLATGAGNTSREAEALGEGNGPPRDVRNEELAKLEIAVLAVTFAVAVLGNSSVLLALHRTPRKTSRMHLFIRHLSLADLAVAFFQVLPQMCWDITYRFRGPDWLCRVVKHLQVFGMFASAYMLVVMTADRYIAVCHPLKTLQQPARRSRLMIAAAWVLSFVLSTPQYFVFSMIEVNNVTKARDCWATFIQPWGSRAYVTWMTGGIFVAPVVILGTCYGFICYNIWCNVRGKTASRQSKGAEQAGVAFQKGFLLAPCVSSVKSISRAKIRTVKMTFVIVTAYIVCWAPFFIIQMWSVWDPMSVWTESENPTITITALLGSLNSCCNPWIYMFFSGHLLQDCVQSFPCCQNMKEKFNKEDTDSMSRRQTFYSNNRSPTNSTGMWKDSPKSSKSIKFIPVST
# [21] = target: Ca2+ channel (L, diltiazem site) (benzothiazepines); voltage-gated L-type calcium channel (Homo sapiens, UniProt O60840+Q01668+Q13698+Q13936); experiment: Ca2+ channel (L, diltiazem site) (benzothiazepines) CEREP ligand profiling; assay type: protein assay; conditions: compound concentration 10 uM
# [22] = target: Ca2+ channel (L, verapamil site) (phenylalkylamines); voltage-gated L-type calcium channel (Homo sapiens, UniProt O60840+Q01668+Q13698+Q13936); experiment: Ca2+ channel (L, verapamil site) (phenylalkylamines) CEREP ligand profiling; assay type: protein assay; conditions: compound concentration 10 uM
# [23] = target: Na+ channel (site 2); sodium channel alpha subunit (Homo sapiens, UniProt P35498+P35499+Q01118+Q14524+Q15858+Q99250+Q9NY46+Q9UI33+Q9UQD0+Q9Y5Y9); experiment: Na+ channel (site 2) CEREP ligand profiling; assay type: protein assay; conditions: compound concentration 10 uM
# [24] = CI channel CEREP ligand profiling
# [25] = target: Phosphodiesterase 4 (Homo sapiens) (UniProt P27815+Q08499+Q07343+Q08493); experiment: PDE 4 (h) CEREP ligand profiling; assay type: protein assay; conditions: Compound concentration 10.0 uM
# [26] = target: Vascular endothelial growth factor receptor 1 (Homo sapiens) (UniProt P17948); experiment: FLT-1 (h) (VEGFR1) CEREP ligand profiling; conditions: Compound concentration 10.0 uM
# [27] = target: Sodium/potassium-transporting ATPase (Homo sapiens) (UniProt P05023+P14415+P05026+P50993+P54709+P13637+Q13733+P54710); experiment: ATPase (Na+/K+) CEREP ligand profiling; assay type: protein-complex assay; conditions: Compound concentration 10.0 uM
# [28] = target: 5-hydroxytryptamine receptor 1A (Homo sapiens) (UniProt P08908); conditions: Compound concentration 10.0 uM
# [29] = target: Delta-type opioid receptor (Homo sapiens) (UniProt P41143); conditions: Compound concentration 10.0 uM
# [30] = target: Kappa-type opioid receptor (Homo sapiens) (UniProt P41145); conditions: Compound concentration 10.0 uM
# [31] = target: Histamine H4 receptor (Homo sapiens) (UniProt Q9H3N8); conditions: Compound concentration 10.0 uM
# T1 sequence (O00519 whole entry): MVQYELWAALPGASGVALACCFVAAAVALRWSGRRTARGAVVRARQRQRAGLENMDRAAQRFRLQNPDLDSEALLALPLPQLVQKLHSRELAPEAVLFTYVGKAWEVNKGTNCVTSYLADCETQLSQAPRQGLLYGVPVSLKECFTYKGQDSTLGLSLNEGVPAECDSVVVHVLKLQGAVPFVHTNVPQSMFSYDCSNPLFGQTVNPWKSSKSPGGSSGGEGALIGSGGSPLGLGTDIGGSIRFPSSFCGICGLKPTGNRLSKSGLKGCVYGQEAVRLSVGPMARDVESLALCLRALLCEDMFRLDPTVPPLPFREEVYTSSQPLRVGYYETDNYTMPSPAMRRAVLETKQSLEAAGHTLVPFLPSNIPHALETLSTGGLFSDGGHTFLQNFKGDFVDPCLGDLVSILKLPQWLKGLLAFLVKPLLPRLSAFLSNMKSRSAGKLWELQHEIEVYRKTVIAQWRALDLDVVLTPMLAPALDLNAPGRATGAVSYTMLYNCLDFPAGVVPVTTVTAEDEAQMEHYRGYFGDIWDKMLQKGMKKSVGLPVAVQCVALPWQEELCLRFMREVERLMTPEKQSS
# Sequence of 5-hydroxytryptamine receptor 2A (P28223 whole entry): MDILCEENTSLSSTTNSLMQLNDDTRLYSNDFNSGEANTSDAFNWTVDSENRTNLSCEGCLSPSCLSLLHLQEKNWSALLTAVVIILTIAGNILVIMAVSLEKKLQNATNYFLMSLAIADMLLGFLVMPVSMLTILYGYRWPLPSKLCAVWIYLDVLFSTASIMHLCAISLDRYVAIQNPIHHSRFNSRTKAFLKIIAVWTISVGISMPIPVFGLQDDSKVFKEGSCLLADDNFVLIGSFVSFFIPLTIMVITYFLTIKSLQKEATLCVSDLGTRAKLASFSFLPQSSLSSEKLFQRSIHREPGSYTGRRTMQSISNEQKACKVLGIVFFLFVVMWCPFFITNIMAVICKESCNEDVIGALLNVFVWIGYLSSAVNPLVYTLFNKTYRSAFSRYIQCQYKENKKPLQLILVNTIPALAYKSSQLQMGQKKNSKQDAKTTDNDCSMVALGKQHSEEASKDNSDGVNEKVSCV
smiles,measurement,setting,value
O=C(Nc1cccnn1)N1CC(C/C=C/c2cncc(Oc3ccc(C(F)(F)F)cn3)n2)C1,IC50,[1],> 100 µM (not active)
O=C(Nc1cccnn1)N1CCC(=Cc2cccc(Oc3ccc(C(F)(F)F)cn3)c2)CC1,Ki,[2],0.249 µM
same,Ki,[3],1.66 µM
same,Ki,[4],0.596 µM
same,Ki,[5],0.472 µM
same,IC50,[6],0.0074 µM (active)
same,inhibition,[7],-2%
same,inhibition,[8],4%
same,inhibition,[9],-10%
same,inhibition,[10],-10%
same,inhibition,[11],3%
same,inhibition,[12],-8%
same,inhibition,[13],2%
same,inhibition,[14],-3%
same,inhibition,[15],-6%
same,inhibition,[16],36%
same,inhibition,[17],0%
same,inhibition,[18],6%
same,inhibition,[19],7%
same,inhibition,[20],8%
same,inhibition at 10 µM,[21],1% (not active)
same,inhibition at 10 µM,[22],-5% (not active)
same,inhibition at 10 µM,[23],13% (not active)
same,Ki,[24],3 µM
same,inhibition,[24]; Compound concentration 10.0 uM,78%
same,inhibition,[25],18%
same,inhibition,[26],4%
same,inhibition,[27],-2%
same,inhibition,[28],20.2%
same,inhibition,[29],12.3%
same,inhibition,[30],30.5%
same,inhibition,[31],17.3%
